From patent US10940139B2, “Compounds that interact with the Ras superfamily for the treatment of cancers, inflammatory diseases, rasopathies, and fibrotic disease” (Shy Therapeutics LLC, priority 2017, dated 2021)

Legend:
[1] = system: TNFα production in RAW 264.7 macrophage cell line; assay: Mouse TNF alpha quantification assay (LPS-stimulated macrophages, ELISA); type: cell-based; conditions: RAW264.7, RAW 264.7 murine leukemia virus transformed macrophage cell lines, LPS stimulation, read-out: TNF-α % Inhibition at 30 μM
[2] = system: IL6 production in RAW 264.7 macrophage cell line; assay: Mouse IL6 quantification assay (LPS-stimulated macrophages, ELISA); type: cell-based; conditions: RAW264.7, RAW 264.7 murine leukemia virus transformed macrophage cell lines, LPS stimulation, read-out: IL-6 % Inhibition at 30 μM

| Compound | inhibition at 30 µM [1] | inhibition at 30 µM [2] |
| --- | --- | --- |
| O=C(c1csc2c(O)nc(-c3ccccn3)nc12)N1CCC(c2ccccc2)CC1 | 51 to 75% | 76 to 100% |
| Cn1nnc2ccc(-c3csc4c(O)nc(-c5ccccn5)nc34)cc21 [drawing 2253] | 1 to 25% | 76 to 100% |
| Oc1nc(-c2ccccn2)nc2c(-c3cccc(C(F)(F)F)c3)csc12 [drawing 2265] | 76 to 100% | 76 to 100% |
| CC(C)Oc1ccc(-c2csc3c(O)nc(-c4nccn4C)nc23)cn1 | 76 to 100% | 76 to 100% |
| COCCNc1nc(-c2nccn2C)nc2sc(-c3ccncc3)c(-c3ccccc3)c12 [drawing 2409] | 51 to 75% | 76 to 100% |
| Oc1nc(-c2ccccn2)nc2c(-c3cc(F)cc(F)c3)csc12 [drawing 2292] | 51 to 75% | 76 to 100% |
| Cn1cnc(-c2nc(O)c3c(-c4ccccc4)c(-c4ccncc4)sc3n2)c1 [drawing 2355] | 1 to 25% | 0% |
| COc1cccc(N2CCN(C(=O)c3csc4c(O)nc(-c5ccccn5)nc34)CC2)c1 [drawing 2167] | 0% | 26 to 50% |
| COc1ccnc(-c2nc(O)c3c(Br)csc3n2)c1 [drawing 2172] | 26 to 50% | 76 to 100% |
| Cc1sc2c(N)nc(-c3ccccn3)nc2c1-c1ccccc1 [drawing 2230] | 1 to 25% | 51 to 75% |
| Oc1nc(-c2ccccn2)nc2c(C3CCC3)csc12 [drawing 2316] | 76 to 100% | 76 to 100% |
| COCCCNc1nc(-c2nccn2C)nc2sc(-c3ccccc3)c(-c3ccccc3)c12 [drawing 2397] | 76 to 100% | 76 to 100% |
| N#Cc1ncn(-c2nc(-c3ccccn3)nc3sc(-c4ccccc4)cc23)n1 [drawing 2132] | 76 to 100% | 76 to 100% |
| COc1ccc(N2CCN(C(=O)c3csc4c(O)nc(-c5ccccn5)nc34)CC2)c(OC)c1 [drawing 2184] | 0% | 76 to 100% |
| Cc1ccc(CN(Cc2ccco2)C(=O)c2oc3ccccc3c2C)cc1 [drawing 2049] | 0% | 1 to 25% |
| N#Cc1ccc(COCC(=O)Nc2nc(-c3ccccn3)nc3sccc23)cc1 [drawing 2211] | 1 to 25% | 51 to 75% |
| Cc1nc2nc(C(F)(F)F)nn2c(C)c1CC(=O)Nc1nnc(-c2ccccn2)[nH]1 [drawing 1984] | 1 to 25% | 0% |
| COc1nccc(CCNC(=O)c2csc3nc(-c4ccccn4)nc(N4CCOCC4)c23)n1 [drawing 2289] | 0% | 26 to 50% |
| O=c1nc(-c2ccccn2)[nH]c2sc(-c3ccccc3)cc12 [drawing 2028] | 76 to 100% | 51 to 75% |
| N#Cc1ccc(CC(=O)Nc2ccnc(-c3ccccn3)n2)cc1 [drawing 2125] | 1 to 25% | 1 to 25% |
| COc1cnc(CNC(=O)c2c(C)sc3c(O)nc(-c4ccccn4)nc23)[nH]c1=O [drawing 2350] | 1 to 25% | 0% |
| COCCNc1nc(-c2nccn2C)nc2sc(-c3ccccc3)c(-c3ccccc3)c12 [drawing 2362] | 26 to 50% | 51 to 75% |
| c1ccc(-c2csc3nc(-c4ccccn4)nc(NN4CCOCC4)c23)cc1 [drawing 2159] | 26 to 50% | 51 to 75% |
| Oc1nc(-c2ccccn2)nc2c(-c3ccccc3C(F)F)csc12 [drawing 2275] | 76 to 100% | 76 to 100% |
| COc1ccccc1C1CN(C(=O)c2csc3c(O)nc(-c4ccccn4)nc23)CCO1 (stereo not drawn) [drawing 2192] | 51 to 75% | 76 to 100% |
| Cn1ccnc1-c1nc(O)c2scc(-c3cccc(Cl)c3)c2n1 [drawing 2444] | 0% | 51 to 75% |
| O=C(CN1CCN(c2nc(-c3ccccn3)nc3scc(-c4ccccc4)c23)CC1)N1CCCCC1 [drawing 2148] | 1 to 25% | 26 to 50% |
